Data on one substance can be found in patent US20130023051A1, “TECHNIQUES FOR TRANSFECTING PROTOPLASTS” (Keygene N.V., priority 2009, published 2013).

For the data set, the system named is mutated EGFP (mEGFP) in BY-2 protoplasts. The experiment in a line: meGFP restoration in BY-2 protoplasts by oligonucleotide-mediated targeted gene repair (Example 3). The class given is cell-based, tobacco. The text has this:
A tobacco Bright Yellow 2 cell suspension containing a non-functional EGFP gene was produced by introducing a point mutation in the chromophore region of the protein resulting in the formation of a premature stop codon. This line is used as reporter system to test the influence of various parameters on the repair of the EGFP gene by oligonucleotide-mediated targeted gene repair.
Five mL of a 7 d-old tobacco Bright Yellow 2 (BY-2) cell suspension culture weekly maintained in BY-2 culture medium (Nagata et al. 1999 Method Cell Sci) are transferred to a 50 mL Erlenmeyer flask containing 45 mL of BY-2 culture medium supplemented with 2 mM hydroxyurea. […] Live protoplasts are harvested and their density evaluated using a haemocytometer. […]
Tobacco protoplasts transfection is performed as for tomato protoplasts. […] To culture medium contained (per liter, pH 5.7) 950 mg KNO3, 825 mg NH4NO3, 220 mg CaCl2.2H2O, 185 mg MgSO4.7H2O, 85 mg KH2PO4, 27.85 mg FeSO4.7H2O, 37.25 mg Na2EDTA.2H2O, the micro-nutrients according to Heller's medium (Heller, R. 1953 Ann Sci Nat Bot Biol Veg), vitamins according to Morel and Wetmore's medium (Morel, G. and R. H. Wetmore 1951 Amer. J. Bot.), 2% (w/v) sucrose, 3 mg naphthalene acetic acid, 1 mg 6-benzylaminopurine and a quantity of mannitol to bring the osmolality to 540 mOsm·kg^−1 and transferred to a 35 mm Petri dish. […]

On to “repairing oligonucleotide: SEQ ID NO 8, T*G*A*A*CAGCTCCTCGCCCTTGC*T*C*A*C, phosphorothioate ends, one mismatch with the targeted sequence (DNA TGAACAGCTCCTCGCCCTTGCTCAC; DNA, linkages s4 o16 s4 (s phosphorothioate, o phosphodiester), methylation of C not given here)”, for which the “GFP positive protoplasts after 24 hours (/10^6)” value was 0 /10^6 (label = Day 1 / Day 2 treatment, oligonucleotide transfected at Day 2, dichlobenil 2 mg·L^−1 overnight, 2 mM hydroxyurea) and 0 /10^6 (oligonucleotide transfected at Day 1, nothing at Day 2, 2 mM hydroxyurea).
